Results: US20120315290A1, “INHIBITORS OF LL-37 MEDIATED IMMUNE REACTIVITY TO SELF NUCLEIC ACIDS” (BOARD OF REGENTS, THE UNIVERSITY OF TEXAS SYSTEM, priority 2006, published 2012)
“Also recorded” adds a separate entry of the source. Where no end group is shown, it is not given here.

Tests used:
[1] = tested on: plasmacytoid dendritic cells (pDC); test: IFN-α and cytokine production by purified human pDC (ELISA of supernatants); type: cell-based; conditions: for pDC activation to produce IFN-α: substance alone added to purified pDC
From the text: (§1) PDC from healthy donors were purified from freshly collected buffy coats. Briefly, PBMC were isolated by Ficoll-Hypaque density gradient centrifugation (GE Healthcare, Piscatway, N.J.) followed by positive sorting using anti-BDCA4-conjugated magnetic microbeads (Miltenyi Biotec, Auburn, Calif.). The recovered cells were stained with PE-Cy5-conjugated anti-CD4, APC-conjugated CD11c, and a cocktail of FITC-conjugated anti-CD3, anti-CD14, anti-CD16, anti-CD15, anti-CD20 and anti-CD56 (Lineage-FITC) (BD Pharmingen, San Diego, Calif.). The CD4+CD11c-Lin- (pDC precursors) were isolated by cell sorting. Purity was routinely >99%. PDC (5-10×10^4/well) were cultured in 96-well round-bottom plates in RPMI 1640 (GIBCO, Carlsbad, Calif.) supplemented with 10% FCS (Atlanta Biologicals, Lawrenceville, Ga.). Where indicated, pDC were stimulated with CpGA (1 μM), CpGB (1 μM), R837 (10 ug/ml), IRS (4 uM), non-CpG sequence (4 uM), and different concentrations of LL-37 and of human genomic DNA. To prepare LL-37.DNA complexes, CpGB, huDNA, non-CpG and LL-37 were mixed by inversion and incubated for 30 min at room temperature before being added to the cells.
(§2) Supernatants samples were taken after 18-24 h after addition of the stimuli. Human IFN-α was measured using a human IFN-α ELISA kit (PBL Biomedical Laboratories, New Brunswick, N.J.) according to the company's instructions. IL-6 and TNF-α were detected using a kit for human IL6 and TNF-α (R&D Systems), respectively.

[2] = tested on: LL-37-mediated activation of pDC; test: Inhibition of LL-37-mediated IFN-α induction in pDC; type: cell-based, human; conditions: pDC stimulated with LL-37 (10 μM) in presence of the substance
Experimental: (§3) (A) pDC were stimulated with LL-37 (10 μM) in the presence of pertussis toxin (PTX) or KN62 to block the FPRL-1 and the P2X pathway respectively. Furthermore agonistic W peptide and ATP were used to stimulate these pathways on pDC. (B) pDC were stimulated with LL-37 (10 μM) in the presence of increasing concentrations of chloroquine to block the endosomal TLR pathway. (C) PDC were pre-treated DNase I, TLR-9 inhibitor (IRS, 4 μM) or ctrl ODN sequences for 30 min and followed by incubation with LL-37 (10 μM), CpG 2216 (CpGA, 1 μM) or imiquimod (R837,10 μg/ml) for 24 h (A). The culture supernatants were analyzed for IFN-α production by ELISA. One representative experiment of three is shown.
Heparin (an anionic sugar) was preincubated for ½ h with LL-37 before stimulating pDC (thus associating with self-DNA released by dying cells in culture) or before adding genomic human DNA and subsequently stimulating pDC.
as §1, §2

pDC [3] = test: pDC viability; type: cell-based, human; conditions: not shown
proteinase 3 = molecular target: T1, proteinase 3 (Homo sapiens, UniProt P24158); test: Cleavage of LL-37 from propeptide hCAP18 in activated neutrophils (Western blot); type: cell-based; conditions: pretreatment of neutrophils, PMA activation
T1 construct: endogenous in cells
T1 sequence (P24158 28-248): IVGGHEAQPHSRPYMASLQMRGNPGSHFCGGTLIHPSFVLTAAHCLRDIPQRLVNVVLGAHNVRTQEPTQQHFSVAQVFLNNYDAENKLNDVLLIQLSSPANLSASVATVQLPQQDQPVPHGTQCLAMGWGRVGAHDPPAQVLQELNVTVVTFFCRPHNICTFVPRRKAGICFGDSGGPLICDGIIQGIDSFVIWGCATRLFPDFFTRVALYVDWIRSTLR

pDC [4] = test: pDC stimulation by supernatant of activated neutrophils (type I IFN); type: cell-based, human; conditions: neutrophils pretreated with inhibitor
From the text: (Left panel) IFN-α released by pDC stimulated with NET w/o Pr-3 inhibitors, CpG, w/o Pr-3 inhibitors is used as positive control.
These findings indicate that proteinase 3 inhibitors block the generation of the mature LL-37 peptide, thus inhibiting the LL-37-mediated break of innate tolerance to self-nucleic acids.

human genomic DNA = test: Complex formation with DNA (ethidium bromide intercalation, size exclusion HPLC); type: binding
From the text: (A) Emission spectra of human genomic DNA intercalated with Ethimidium bromide in the presence of increasing doses of LL-37. (B) Size exclusion HPLC of LL-37 alone, mut-LL-37 alone or DNA premixed with LL-37 or mut-37. […] Absorbance scales are different to accommodate the DNA peak.

TLR7 = molecular target: T2, TLR7 (Homo sapiens, UniProt Q9NYK1); test: Inhibition of IFN-α induction in pDC by TLR7 agonist imiquimod; type: cell-based
T2 construct: PDC from healthy donors were purified from freshly collected buffy coats; endogenous in cells; host or cells: primary human pDC sorted from buffy coats of healthy donors
T2 sequence (Q9NYK1 27-1049): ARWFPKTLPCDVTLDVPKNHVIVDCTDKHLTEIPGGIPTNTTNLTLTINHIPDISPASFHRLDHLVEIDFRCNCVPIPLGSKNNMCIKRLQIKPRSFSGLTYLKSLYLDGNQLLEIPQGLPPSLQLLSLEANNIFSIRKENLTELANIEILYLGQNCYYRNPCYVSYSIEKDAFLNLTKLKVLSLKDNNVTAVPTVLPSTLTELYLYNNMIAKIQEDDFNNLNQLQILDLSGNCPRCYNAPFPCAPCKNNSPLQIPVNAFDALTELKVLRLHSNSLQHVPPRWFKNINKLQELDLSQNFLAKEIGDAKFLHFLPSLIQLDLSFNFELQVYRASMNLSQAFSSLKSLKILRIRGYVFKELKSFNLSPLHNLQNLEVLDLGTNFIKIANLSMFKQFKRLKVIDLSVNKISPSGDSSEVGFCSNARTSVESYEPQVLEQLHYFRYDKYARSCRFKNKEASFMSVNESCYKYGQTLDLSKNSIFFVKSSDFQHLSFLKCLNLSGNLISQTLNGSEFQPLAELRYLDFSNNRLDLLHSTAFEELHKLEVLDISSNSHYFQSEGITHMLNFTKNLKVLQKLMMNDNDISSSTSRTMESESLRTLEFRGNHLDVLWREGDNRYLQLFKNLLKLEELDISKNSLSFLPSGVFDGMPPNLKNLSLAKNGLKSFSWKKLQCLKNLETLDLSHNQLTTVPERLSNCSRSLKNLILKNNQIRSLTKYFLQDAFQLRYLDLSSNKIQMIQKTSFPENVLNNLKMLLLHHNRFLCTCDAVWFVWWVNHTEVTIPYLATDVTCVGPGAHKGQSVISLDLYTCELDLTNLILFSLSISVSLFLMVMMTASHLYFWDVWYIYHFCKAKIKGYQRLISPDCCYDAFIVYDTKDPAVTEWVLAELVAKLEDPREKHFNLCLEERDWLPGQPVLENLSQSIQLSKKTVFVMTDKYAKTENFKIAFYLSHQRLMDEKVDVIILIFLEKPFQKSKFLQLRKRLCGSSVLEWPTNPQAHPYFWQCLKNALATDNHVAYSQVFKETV
Experimental: as §3
(§4) PDC from healthy donors were purified from freshly collected buffy coats. Briefly, PBMC were isolated by Ficoll-Hypaque density gradient centrifugation (GE Healthcare, Piscatway, N.J.) followed by positive sorting using anti-BDCA4-conjugated magnetic microbeads (Miltenyi Biotec, Auburn, Calif.). […]
as §2

TLR-9 = molecular target: T3, TLR-9 (Homo sapiens, UniProt Q9NR96); test: Inhibition of IFN-α induction in pDC by TLR-9 agonist CpG sequences; type: cell-based
T3 construct: PDC from healthy donors were purified from freshly collected buffy coats; endogenous in cells; host or cells: primary human pDC sorted from buffy coats of healthy donors
T3 sequence (Q9NR96 26-1032): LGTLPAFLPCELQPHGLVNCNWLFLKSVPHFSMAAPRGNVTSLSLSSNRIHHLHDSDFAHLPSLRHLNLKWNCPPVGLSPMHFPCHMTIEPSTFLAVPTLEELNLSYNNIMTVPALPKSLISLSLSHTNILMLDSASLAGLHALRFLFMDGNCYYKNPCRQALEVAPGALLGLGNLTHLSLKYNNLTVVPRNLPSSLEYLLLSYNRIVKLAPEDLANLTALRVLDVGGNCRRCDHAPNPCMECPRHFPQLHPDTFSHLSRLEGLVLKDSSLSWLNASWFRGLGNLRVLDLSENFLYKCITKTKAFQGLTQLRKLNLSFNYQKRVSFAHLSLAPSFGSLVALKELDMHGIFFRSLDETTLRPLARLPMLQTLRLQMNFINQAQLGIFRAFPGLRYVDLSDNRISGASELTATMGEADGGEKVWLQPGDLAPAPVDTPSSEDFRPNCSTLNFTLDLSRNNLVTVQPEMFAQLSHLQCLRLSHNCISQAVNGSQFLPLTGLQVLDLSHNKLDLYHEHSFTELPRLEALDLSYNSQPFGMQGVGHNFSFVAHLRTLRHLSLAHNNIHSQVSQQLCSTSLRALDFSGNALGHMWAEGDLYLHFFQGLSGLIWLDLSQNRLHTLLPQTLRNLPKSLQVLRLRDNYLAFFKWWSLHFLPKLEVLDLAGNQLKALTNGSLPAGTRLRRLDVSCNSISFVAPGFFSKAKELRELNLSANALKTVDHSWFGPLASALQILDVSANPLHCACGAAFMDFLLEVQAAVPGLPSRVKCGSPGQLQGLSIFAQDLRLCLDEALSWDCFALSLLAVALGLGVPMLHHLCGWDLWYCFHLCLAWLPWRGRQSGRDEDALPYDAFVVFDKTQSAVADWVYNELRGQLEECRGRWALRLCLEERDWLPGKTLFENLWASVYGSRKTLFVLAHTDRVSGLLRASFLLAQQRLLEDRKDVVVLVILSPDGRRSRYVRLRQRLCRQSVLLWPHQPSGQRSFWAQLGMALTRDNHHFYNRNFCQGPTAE
Experimental: as §3, §4, §2

Nc1ncnc2c1ncn2[C@@H]1O[C@H](COP(=O)(O)OP(=O)(O)OP(=O)(O)O)[C@@H](O)[C@H]1O [ATP, Adenosin triphopshate]
pDC activation to produce IFN-α [1]: did not result in IFN-α production by pDC

CCN(CC)CCCC(C)Nc1ccnc2cc(Cl)ccc12 (stereo not drawn) [Chloroquine]
Effect on IFN-α induction by LL-37 in pDC [2]: inhibited LL-37-mediated IFN-α induction in a dose-dependent manner
Effect on pDC viability (pDC [3]): no measurable effect on pDC viability

CC(C)C[C@H](NC(=O)[C@@H](NC(=O)N[C@@H](Cc1ccccc1)C(=O)O)[C@@H]1CCN=C(N)N1)C(=O)N[C@H](C=O)Cc1ccccc1 [Chymostatin]
Cleavage of the 4 kD LL-37 peptide from hCAP18 (proteinase 3): can be blocked; also recorded: block the cleavage of LL-37 from its propeptide hCAP
Capacity of activated neutrophils to stimulate pDC to produce type I IFNs (pDC [4]): abrogated; also recorded: inhibit the activation of pDC by self-DNA released by neutrophils

CN([C@@H](Cc1ccc(OS(=O)(=O)c2cccc3cnccc23)cc1)C(=O)N1CCN(c2ccccc2)CC1)S(=O)(=O)c1cccc2cnccc12 [KN62, KN-62]
Effect on IFN-α induction by LL-37 in pDC [2]: did not inhibit IFN-α induction by LL-37

DNase I
Effect on IFN-α induction by LL-37 in pDC [2]: significantly inhibited

GGGGGACGATCGTCGGGGGG [CpGA]
IFN-α induction by pDC, single stranded form complexed to LL-37 [1]: restored
IFN-α induction by pDC, single stranded form (heat and flash cooling) ([1]; multimeric complex disrupted): strongly inhibited

HBD-3: AMP cultured with pDC at equimolar doses (GIINTLQKYYCRVRGGRCAVLSCLPKEEQIGKCSTRGRKCCRRKK; ends and bridges not checked; cysteine pairing not given here; UniProt P81534 23-67, looked up)
pDC activation to produce IFN-α [1]: did not induce pDC activation to produce IFN-α

LLGDFFAVSKEKIGAEFVRIVQAIKDFLRNLVPRTES [mLL-37]
Complex formation with DNA (human genomic DNA): not able to complex with DNA
pDC activation to produce IFN-α [1]: complete abrogation of pDC activation
pDC activation to produce IFN-α ([1]; listed as mutated LL-37 peptide): did not induce IFN-α

MeOSuc-CMK
Cleavage of the 4 kD LL-37 peptide from hCAP18 (proteinase 3): can be blocked; also recorded: block the cleavage of LL-37 from its propeptide hCAP
Capacity of activated neutrophils to stimulate pDC to produce type I IFNs (pDC [4]): abrogated; also recorded: inhibit the activation of pDC by self-DNA released by neutrophils

Pertussis Toxin [PTX]
Effect on IFN-α induction by LL-37 in pDC [2]: did not inhibit IFN-α induction by LL-37

TCGTCGTTTTGTCGTTTTGTCGTT [phophodiesteric CpG-B]
IFN-α production by pDC stimulated with nucleic acid alone or combined with LL-37, as labelled [1]: unable to induce IFN-α

TCGTCGTTTTGTCGTTTTGTCGTT [phosphothiorate CpG-B]
IFN-α production by pDC stimulated with nucleic acid alone or combined with LL-37, as labelled [1]: induced significant levels of IFN-α

TTTAGGGTTAGGGTTAGGGTTAGGG (listed as DNA, chemistry not given here) [IRS]
Effect on IFN-α induction by LL-37 in pDC [2]: inhibited pDC activation to produce IFN-α
Effect on IFN-α induction by TLR7 agonist imiquimod in pDC (TLR7): not TLR7 agonist imiquimod
Effect on IFN-α induction by TLR-9 agonist CpG sequences in pDC (TLR-9): block IFN-α induction by TLR-9 agonist CpG-sequences

WKYMV-peptide [W peptide]
pDC activation to produce IFN-α [1]: did not result in IFN-α production by pDC

heparin
Effect on IFN-α induction by LL-37 in pDC [2]: completely abrogated; also recorded: inhibits the ability of LL-37 to induce IFN-α

B1: S100-7: AMP cultured with pDC at equimolar doses (protein, UniProt P31151 2-101, looked up)
Protein S100-A7: SNTQAERSIIGMIDMFHKYTRRDDKIEKPSLLTMMKENFPNFLSACDKKGTNYLADVFEKKDKNEDKKIDFSEFLSLLGDIATDYHKQSHGAAPCSGGSQ
pDC activation to produce IFN-α [1]: did not induce pDC activation to produce IFN-α
